Experimental data reported in ChEMBL document CHEMBL3885861, “Open TG-GATES”.

Species on record: Rattus norvegicus
Test: Open TG-GATES - Regimen: Single
Format: toxicity, organism-based, Sprague-Dawley
Design: regimen Single, gender Male, age 6 weeks
Settings: in vivo, po, route gavage; for APTT / Bas / Eos / Fbg / Hb / Ht / Lym / MCH / MCHC / MCV / Mono / Neu / PT / Plat / RBC / Ret / WBC: tissue Blood; for KIDNEY_L / KIDNEY_R / KIDNEY_TOTAL: tissue Kidney; for LIVER: tissue Liver; for A/G / ALP / ALT / AST / BUN / CRE / Ca / Cl / DBIL / GLC / IP / K / LDH / Na / PL / RALB / TBIL / TC / TG / TP / gamma-GTP: tissue Plasma
[1] = 0 mg/kg, 3 h, dose level Control
[2] = 0 mg/kg, 6 h, dose level Control
[3] = 0 mg/kg, 9 h, dose level Control
[4] = 0 mg/kg, 24 h, dose level Control
[5] = 100 mg/kg, 24 h, dose level Low

## CCc1cc(C(N)=S)ccn1 [ETHIONAMIDE]
[1]
  TERMINAL_BW: 229.3 g
  APTT: 16.6 s
  Bas: 0%
  Eos: 1%
  Fbg: 213.4 mg/dL
  Hb: 14 g/dL
  Ht: 41.5%
  Lym: 80.2%
  MCH: 22.1 pg
  MCHC: 33.8%
  MCV: 65.5 fL
  Mono: 7.2%
  Neu: 11.6%
  PT: 11.7 s
  Plat: 118.5 x10_4/uL
  RBC: 635.2 x10_4/ul
  Ret: 7.7%
  WBC: 98.2 x10_2/uL
  KIDNEY_L: 1 g
  KIDNEY_R: 1.1 g
  KIDNEY_TOTAL: 2.1 g
  LIVER: 11.4 g
  A/G: 1.8
  ALP: 831 IU/L
  ALT: 31.8 IU/L
  AST: 64.6 IU/L
  BUN: 13.6 mg/dL
  CRE: 0.6 mg/dL
  Ca: 10.9 mg/dL
  Cl: 104.8 meq/L
  DBIL: 0.006 mg/dL
  GLC: 192.4 mg/dL
  IP: 8.2 mg/dL
  K: 4.6 meq/L
  LDH: 72.6 IU/L
  Na: 141 meq/L
  PL: 152.2 mg/dL
  RALB: 3.5 g/dL
  TBIL: 0.3 mg/dL
  TC: 82 mg/dL
  TG: 86.2 mg/dL
  TP: 5.4 g/dL
  gamma-GTP: 1 IU/L
[2]
  TERMINAL_BW: 223.7 g
  APTT: 18.2 s
  Bas: 0%
  Eos: 1%
  Fbg: 221.6 mg/dL
  Hb: 14.1 g/dL
  Ht: 41.9%
  Lym: 80.6%
  MCH: 21.8 pg
  MCHC: 33.5%
  MCV: 65.2 fL
  Mono: 7.6%
  Neu: 11.2%
  PT: 12.1 s
  Plat: 124.1 x10_4/uL
  RBC: 644 x10_4/ul
  Ret: 7.8%
  WBC: 114.3 x10_2/uL
  KIDNEY_L: 1 g
  KIDNEY_R: 1 g
  KIDNEY_TOTAL: 2 g
  LIVER: 10.5 g
  A/G: 1.6
  ALP: 729.4 IU/L
  ALT: 29.6 IU/L
  AST: 63.6 IU/L
  BUN: 12 mg/dL
  CRE: 0.5 mg/dL
  Ca: 11 mg/dL
  Cl: 104 meq/L
  DBIL: 0 mg/dL
  GLC: 187.6 mg/dL
  IP: 9.4 mg/dL
  K: 5 meq/L
  LDH: 87.8 IU/L
  Na: 139 meq/L
  PL: 150 mg/dL
  RALB: 3.3 g/dL
  TBIL: 0.4 mg/dL
  TC: 82.4 mg/dL
  TG: 86.6 mg/dL
  TP: 5.4 g/dL
  gamma-GTP: 1.2 IU/L
[3]
  TERMINAL_BW: 223.4 g
  APTT: 17.3 s
  Bas: 0%
  Eos: 1%
  Fbg: 213.8 mg/dL
  Hb: 13.9 g/dL
  Ht: 41%
  Lym: 71%
  MCH: 21.8 pg
  MCHC: 33.9%
  MCV: 64.3 fL
  Mono: 7%
  Neu: 21.4%
  PT: 12.1 s
  Plat: 115.1 x10_4/uL
  RBC: 639.6 x10_4/ul
  Ret: 7.9%
  WBC: 97.9 x10_2/uL
  KIDNEY_L: 1.1 g
  KIDNEY_R: 1 g
  KIDNEY_TOTAL: 2.1 g
  LIVER: 9.8 g
  A/G: 1.9
  ALP: 759.2 IU/L
  ALT: 31.2 IU/L
  AST: 59.2 IU/L
  BUN: 13.2 mg/dL
  CRE: 0.5 mg/dL
  Ca: 10.4 mg/dL
  Cl: 107 meq/L
  DBIL: 0.024 mg/dL
  GLC: 194.8 mg/dL
  IP: 10.2 mg/dL
  K: 4.7 meq/L
  LDH: 66.6 IU/L
  Na: 143.4 meq/L
  PL: 126.8 mg/dL
  RALB: 3.6 g/dL
  TBIL: 0.4 mg/dL
  TC: 65.8 mg/dL
  TG: 47.8 mg/dL
  TP: 5.4 g/dL
  gamma-GTP: 1.2 IU/L
[4]
  TERMINAL_BW: 237.2 g
  APTT: 16.3 s
  Bas: 0%
  Eos: 1.2%
  Fbg: 214.4 mg/dL
  Hb: 13.9 g/dL
  Ht: 41.1%
  Lym: 75.6%
  MCH: 21.8 pg
  MCHC: 33.7%
  MCV: 64.7 fL
  Mono: 7.6%
  Neu: 15.6%
  PT: 11.7 s
  Plat: 117.8 x10_4/uL
  RBC: 635.6 x10_4/ul
  Ret: 7.8%
  WBC: 117.6 x10_2/uL
  KIDNEY_L: 1 g
  KIDNEY_R: 1 g
  KIDNEY_TOTAL: 2.1 g
  LIVER: 11.8 g
  A/G: 1.9
  ALP: 856.4 IU/L
  ALT: 40.8 IU/L
  AST: 70.6 IU/L
  BUN: 20 mg/dL
  CRE: 0.6 mg/dL
  Ca: 11 mg/dL
  Cl: 104.4 meq/L
  DBIL: 0.016 mg/dL
  GLC: 200.2 mg/dL
  IP: 8.1 mg/dL
  K: 4.7 meq/L
  LDH: 77.8 IU/L
  Na: 141.2 meq/L
  PL: 151.8 mg/dL
  RALB: 3.6 g/dL
  TBIL: 0.3 mg/dL
  TC: 79.8 mg/dL
  TG: 90.6 mg/dL
  TP: 5.5 g/dL
  gamma-GTP: 1.6 IU/L
100 mg/kg, 3 h, dose level Low
  TERMINAL_BW: 224.2 g
  APTT: 16.6 s
  Bas: 0%
  Eos: 1%
  Fbg: 211.2 mg/dL
  Hb: 13.8 g/dL
  Ht: 40.6%
  Lym: 73.6%
  MCH: 21.8 pg
  MCHC: 34%
  MCV: 64 fL
  Mono: 8.4%
  Neu: 17.4%
  PT: 12.4 s
  Plat: 119.3 x10_4/uL
  RBC: 635.8 x10_4/ul
  Ret: 7.1%
  WBC: 90.5 x10_2/uL
  KIDNEY_L: 1 g
  KIDNEY_R: 1 g
  KIDNEY_TOTAL: 1.9 g
  LIVER: 10.7 g
  A/G: 1.9
  ALP: 802.2 IU/L
  ALT: 36 IU/L
  AST: 68.6 IU/L
  BUN: 15 mg/dL
  CRE: 0.7 mg/dL
  Ca: 11 mg/dL
  Cl: 103 meq/L
  DBIL: 0.012 mg/dL
  GLC: 181.6 mg/dL
  IP: 9.2 mg/dL
  K: 4.4 meq/L
  LDH: 109 IU/L
  Na: 140.6 meq/L
  PL: 128.4 mg/dL
  RALB: 3.6 g/dL
  TBIL: 0.4 mg/dL
  TC: 73 mg/dL
  TG: 58 mg/dL
  TP: 5.5 g/dL
  gamma-GTP: 1.6 IU/L
100 mg/kg, 6 h, dose level Low
  TERMINAL_BW: 229.4 g
  APTT: 17.1 s
  Bas: 0%
  Eos: 0.8%
  Fbg: 208.8 mg/dL
  Hb: 14.2 g/dL
  Ht: 42.1%
  Lym: 77.6%
  MCH: 22.1 pg
  MCHC: 33.7%
  MCV: 65.7 fL
  Mono: 8%
  Neu: 14.2%
  PT: 13.4 s
  Plat: 114.8 x10_4/uL
  RBC: 640.6 x10_4/ul
  Ret: 7.5%
  WBC: 84 x10_2/uL
  KIDNEY_L: 1 g
  KIDNEY_R: 1 g
  KIDNEY_TOTAL: 2 g
  LIVER: 10.8 g
  A/G: 1.8
  ALP: 908.4 IU/L
  ALT: 31.6 IU/L
  AST: 77.4 IU/L
  BUN: 15.6 mg/dL
  CRE: 0.5 mg/dL
  Ca: 11 mg/dL
  Cl: 105.4 meq/L
  DBIL: 0.004 mg/dL
  GLC: 187.4 mg/dL
  IP: 9.8 mg/dL
  K: 4.5 meq/L
  LDH: 123.4 IU/L
  Na: 140.4 meq/L
  PL: 126 mg/dL
  RALB: 3.5 g/dL
  TBIL: 0.4 mg/dL
  TC: 69.6 mg/dL
  TG: 54.4 mg/dL
  TP: 5.5 g/dL
  gamma-GTP: 1 IU/L
100 mg/kg, 9 h, dose level Low
  TERMINAL_BW: 222.6 g
  APTT: 18.1 s
  Bas: 0%
  Eos: 1.4%
  Fbg: 210.2 mg/dL
  Hb: 14.2 g/dL
  Ht: 42.2%
  Lym: 70%
  MCH: 21.7 pg
  MCHC: 33.7%
  MCV: 64.4 fL
  Mono: 8.6%
  Neu: 20%
  PT: 14.1 s
  Plat: 116.8 x10_4/uL
  RBC: 655.2 x10_4/ul
  Ret: 8.3%
  WBC: 79.2 x10_2/uL
  KIDNEY_L: 1 g
  KIDNEY_R: 1 g
  KIDNEY_TOTAL: 2 g
  LIVER: 9.8 g
  A/G: 2
  ALP: 756.6 IU/L
  ALT: 33.8 IU/L
  AST: 73.4 IU/L
  BUN: 15 mg/dL
  CRE: 0.6 mg/dL
  Ca: 10.7 mg/dL
  Cl: 105.2 meq/L
  DBIL: 0.018 mg/dL
  GLC: 205.4 mg/dL
  IP: 10.7 mg/dL
  K: 4.5 meq/L
  LDH: 95.6 IU/L
  Na: 142 meq/L
  PL: 100.4 mg/dL
  RALB: 3.5 g/dL
  TBIL: 0.4 mg/dL
  TC: 53.4 mg/dL
  TG: 28.4 mg/dL
  TP: 5.3 g/dL
  gamma-GTP: 1.4 IU/L
[5]
  TERMINAL_BW: 231 g
  APTT: 16.3 s
  Bas: 0%
  Eos: 1.2%
  Fbg: 214.8 mg/dL
  Hb: 14.3 g/dL
  Ht: 42.3%
  Lym: 62.4%
  MCH: 21.6 pg
  MCHC: 33.8%
  MCV: 63.8 fL
  Mono: 12.8%
  Neu: 23.8%
  PT: 12.2 s
  Plat: 117.2 x10_4/uL
  RBC: 663 x10_4/ul
  Ret: 8%
  WBC: 110 x10_2/uL
  KIDNEY_L: 1.1 g
  KIDNEY_R: 1.1 g
  KIDNEY_TOTAL: 2.1 g
  LIVER: 11.7 g
  A/G: 1.9
  ALP: 884.8 IU/L
  ALT: 38.6 IU/L
  AST: 80.4 IU/L
  BUN: 16.4 mg/dL
  CRE: 0.6 mg/dL
  Ca: 10.9 mg/dL
  Cl: 104.6 meq/L
  DBIL: 0.026 mg/dL
  GLC: 193.2 mg/dL
  IP: 7.8 mg/dL
  K: 4.6 meq/L
  LDH: 90.4 IU/L
  Na: 141.4 meq/L
  PL: 136 mg/dL
  RALB: 3.6 g/dL
  TBIL: 0.3 mg/dL
  TC: 67.6 mg/dL
  TG: 103.8 mg/dL
  TP: 5.5 g/dL
  gamma-GTP: 1.8 IU/L
